target: T1, human kinesin spindle protein KSP/Eg5 (Homo sapiens, UniProt P52732); test: Inhibition of the kinesin spindle protein KSP/Eg5 (ATPase, malachite green); assay type: biochemical; conditions: 10 nM KSP motor domain, 500 μM ATP, 2 h RT
T1 construct: The motor domain of the human kinesin spindle protein KSP/Eg5; purchased tebu-bio/Cytoskeleton Inc 027EG01-XL
T1 sequence (P52732 18-359 limits assumed): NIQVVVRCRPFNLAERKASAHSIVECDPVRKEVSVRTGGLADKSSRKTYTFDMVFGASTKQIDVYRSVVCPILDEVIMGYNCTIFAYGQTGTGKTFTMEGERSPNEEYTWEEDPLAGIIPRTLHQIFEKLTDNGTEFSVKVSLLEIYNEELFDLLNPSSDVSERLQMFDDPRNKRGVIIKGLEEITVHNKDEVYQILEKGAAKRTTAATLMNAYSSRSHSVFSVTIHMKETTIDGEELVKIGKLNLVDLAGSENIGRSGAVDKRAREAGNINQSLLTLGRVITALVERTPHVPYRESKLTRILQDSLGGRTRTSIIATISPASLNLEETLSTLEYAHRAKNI
Protocol: C-1b Determination of the Inhibition of the Kinesin Spindle Protein KSP/Eg5 by Selected Examples
The motor domain of the human kinesin spindle protein KSP/Eg5 (from tebu-bio/Cytoskeleton Inc, No. 027EG01-XL) is incubated at a concentration of 10 nM with 50 μg/ml taxol- (from Sigma No. T7191-5MG) stabilized microtubuli (bovine or porcine, from tebu-bio/Cytoskeleton Inc) for 5 min at RT in 15 mM PIPES, pH 6.8 (5 mM MgCl2 and 10 mM DTT, from Sigma). The freshly prepared mixture is aliquoted into a 384-well MTP. The inhibitors to be examined at concentrations of 1.0×10^−6 M to 1.0×10^−13 and ATP (final concentration 500 μM, from Sigma) are then added. Incubation is at RT for 2 h. ATPase activity is detected by detecting the inorganic phosphate formed using malachite green (from Biomol). […] The individual data of the dose-activity curve are eight-fold determinations. The IC50 values are means of three independent experiments.

Compound	IC50
CC(C)(C)[C@H](c1nc(-c2cc(F)ccc2F)cn1Cc1ccccc1)N(CC(CN)CS)C(=O)CO (single isomer, unassigned; isomer 1) [Example 93]	2.52 nM
CC(C)(C)[C@H](c1nc(-c2cc(F)ccc2F)cn1Cc1ccccc1)N(CC(CN)CS)C(=O)CO (single isomer, unassigned; isomer 2) [Example 94]	5.14 nM
CC(C)(C)[C@H](c1nc(-c2cc(F)ccc2F)cn1Cc1ccccc1)N(CC[C@H](N)C(=O)N(N)CC(=O)O)C(=O)CO [Example 81, (1-{(2S)-2-Amino-4-[{(1R)-1-[1-benzyl-4-(2,5-difluorphenyl)-1H-imidazol-2-yl]-2,2-dimethylpropyl}(glycoloyl)amino]butanoyl}hydrazino)acetic acid/trifluoroacetic acid (1:2)]	1.42 nM
CC(C)(C)[C@H](c1nc(-c2cc(F)ccc2F)cn1Cc1ccccc1)N(CCCN)C(=O)c1ccc(N)cc1 [Example 95, Trifluoroacetic acid/4-amino-N-(3-aminopropyl)-N-{(1R)-1-[1-benzyl-4-(2,5-difluorophenyl)-1H-imidazol-2-yl]-2,2-dimethylpropyl}benzamide (2:1)]	3.05 nM
CC(C)(C)[C@H](c1nc(-c2cc(F)ccc2F)cn1Cc1ccccc1)N(CCCNC(=O)[C@@H](N)CCCNC(N)=O)C(=O)CO [Example 100, Trifluoroacetic acid/N-{3-[{(1R)-1-[1-benzyl-4-(2,5-difluorophenyl)-1H-imidazol-2-yl]-2,2-dimethylpropyl}(glycoloyl)amino]propyl}-N5-carbamoyl-L-ornithinamide (1:1)]	5.99 nM

test system: not listed separately; test: Cell permeability, flux assay using Caco-2 cells; conditions: human, Caco-2
Protocol: C-3 In Vitro Tests for Determining Cell Permeability
The cell permeability of a substance can be investigated by means of in vitro testing in a flux assay using Caco-2 cells [M. D. Troutman and D. R. Thakker, Pharm. […] For this purpose, the cells were cultured for 15-16 days on 24-well filter plates. For the determination of permeation, the respective working example was applied in a HEPES buffer to the cells either apically (A) or basally (B) and incubated for 2 hours. After 0 hours and after 2 hours, samples were taken from the cis and trans compartments. The samples were separated by HPLC (Agilent 1200, Böblingen, Germany) using reverse phase columns.
Of critical importance for toxophores which are released intracellularly is the permeability from B to A [Papp(B-A)] and the ratio of Papp(B-A) to Papp(A-B) (efflux ratio): the lower this permeability, the slower the active and passive transport processes of the substance through the monolayer of Caco-2 cells.

Compound	Papp B→A at 2 h	efflux ratio at 2 h
CC(C)(C)[C@H](c1nc(-c2cc(F)ccc2F)cn1Cc1ccccc1)N(CC[C@H](N)C(=O)NCCN1C(=O)CC(SC[C@H](N)C(=O)O)C1=O)C(=O)CO (stereo partly drawn) [Example 61, S-{1-[2-({(2S)-2-Amino-4-[{(1R)-1-[1-benzyl-4-(2,5-difluorophenyl)-1H-imidazol-2-yl]-2,2-dimethylpropyl}(glycoloyl)amino]butanoyl}amino)ethyl]-2,5-dioxopyrrolidin-3-yl}-L-cysteine]	4.4 ×10⁻⁶ cm/s	7.4
CC(C)(C)[C@H](c1nc(-c2cc(F)ccc2F)cn1Cc1ccccc1)N(CC[C@H](N)C(=O)NCCOCCN1C(=O)CC(SC[C@H](N)C(=O)O)C1=O)C(=O)CO (stereo partly shown) [Example 62]	5 ×10⁻⁶ cm/s	6
CC(C)(C)[C@H](c1nc(-c2cc(F)ccc2F)cn1Cc1ccccc1)N(CC[C@H](N)C(=O)NN)C(=O)CO.O=C(O)C(F)(F)F [Example 77, Trifluoroacetic acid/N-[(3S)-3-amino-4-hydrazino-4-oxobutyl]-N-{(1R)-1-[1-benzyl-4-(2,5-difluorophenyl)-1H-imidazol-2-yl]-2,2-dimethylpropyl}-2-hydroxyacetamide (1:1)]	48 ×10⁻⁶ cm/s	47
CC(C)(C)[C@H](c1nc(-c2cc(F)ccc2F)cn1Cc1ccccc1)N(CC[C@H](N)C(=O)NCCC(=O)O)C(=O)CO [Example 79, N-{(2S)-2-Amino-4-[{(1R)-1-[1-benzyl-4-(2,5-difluorophenyl)-1H-imidazol-2-yl]-2,2-dimethylpropyl}(glycoloyl)amino]butanoyl}-beta-alanine]	5.8 ×10⁻⁶ cm/s	
CC(C)(C)[C@H](c1cc(-c2cc(F)ccc2F)cn1Cc1ccccc1)N(CC[C@H](N)C(=O)NCCOCCN1C(=O)CC(SC[C@H](N)C(=O)O)C1=O)C(=O)CO.O=C(O)C(F)(F)F (stereo partly drawn) [Example 251, S-(1-{2-[2-({(2S)-2-Amino-4-[{(1R)-1-[1-benzyl-4-(2,5-difluorophenyl)-1H-pyrrol-2-yl]-2,2-dimethylpropyl}(glycoloyl)amino]butanoyl}amino)ethoxy]ethyl}-2,5-dioxopyrrolidin-3-yl)-L-cysteine/trifluoroacetic acid (1:1)]	2.1 ×10⁻⁶ cm/s	
